Columns and labels:
Assay type in all cases: in vivo
SD rat = test: Single administration toxicity test in rat (lethal dose); conditions: observed for 14 days
Description: (§1) (E)-3-[2-(5,6-Dimethoxy-3-methyl-1,4-benzoquinonyl)]-2-nonylpropenoic acid was used as a test compound.

KK-Ay/Ta mice [1] = test: Hemoglobin AIc (HbAIc) in type-II diabetes model mice, oral dosing twice daily for 14 days; conditions: 300 mg/Kg/day p.o. for 14 days, KK-Ay/Ta mice (Table 3)
Description: (§2) Use was made of 22-week old male KK-Ay/Ta mice (type-II diabetes model mice available from Clea Japan Inc.). Restricted feeding was effected such that the animals were starved from 9:00 a.m. to 5:00 p.m. daily through the experimental period.
(§3) (E)-3-[2-(5,6-Dimethoxy-3-methyl-1,4-benzoquinonyl)]-2-nonylpropenoic acid as a representative example of the compounds of the present invention was suspended in 0.5% methylcellulose (MC) and orally administered twice 9:00 a.m. and 5:00 p.m. daily for 14 days in accordance with the following schedule.
(§4) The 0.5% methylcellulose (MC) was administered to a control group in the same manner as above.
All blood specimens were collected from the cardal veins, and blood sugar and blood insulin levels were measured on the day preceding the administration (day 0) and 3 days (day 3), 7 days (day 7), 10 days (day 10) and 14 days (day 14) after the administration. Hemoglobin AIc (HbAIc) was measured on day 0 and day 14. The measurements of blood sugar level, blood insulin level and HbAIc were conducted by the use of Fuji Dry-Chem System 5500 (manufactured by Fuji Medical Systems Co., Ltd.), insulin measuring kit (EIA sandwich method, manufactured by Morinaga Seikagaku Kenkyusho) and DCA 2000 System (manufactured by Bayer Diagnosics), respectively. The results are expressed by the average ± standard error with respect to each group. […]

beagle = test: Single administration toxicity test in beagle (lethal dose); conditions: p.o., observed for 21 days
Description: as §1

KK-Ay/Ta mice [2] = test: Blood sugar level in type-II diabetes model mice, oral dosing twice daily for 14 days; conditions: for Blood sugar level: male KK-Ay/Ta mice, average ± standard error, N=6
Description: as §2, §3, §4
All blood specimens were collected from the cardal veins, and blood sugar and blood insulin levels were measured on the day preceding the administration (day 0) and 3 days (day 3), 7 days (day 7), 10 days (day 10) and 14 days (day 14) after the administration. Hemoglobin AIc (HbAIc) was measured on day 0 and day 14. The measurements of blood sugar level, blood insulin level and HbAIc were conducted by the use of Fuji Dry-Chem System 5500 (manufactured by Fuji Medical Systems Co., Ltd.), insulin measuring kit (EIA sandwich method, manufactured by Morinaga Seikagaku Kenkyusho) and DCA 2000 System (manufactured by Bayer Diagnosics), respectively. The results are expressed by the average ± standard error with respect to each group. The significant difference test as compared with the control group was performed by the Student t-test.

CCCCCCCCC/C(=C\C1=C(C)C(=O)C(OC)=C(OC)C1=O)C(=O)O [invention compd., (E)-3-[2-(5,6-Dimethoxy-3-methyl-1,4-benzoquinonyl)]-2-nonylpropenoic acid]
Lethal dose (SD rat; i.v.): >60 mg/kg | Lethal dose (SD rat; p.o.): 2000 mg/kg | HbAIc change as compared with the control group (in words) (KK-Ay/Ta mice [1]): decrease trend | Lethal dose (beagle): >400 mg/kg | hypoglycemic effect (in words) (KK-Ay/Ta mice [2]; 300 mg/Kg/day p.o. for 14 days, KK-Ay/Ta mice, compared with the control group (Table 2, Fig. 1)): excellent hypoglycemic effect | Blood sugar level (KK-Ay/Ta mice [2]; Day 0 (day preceding the administration, baseline)): 465.7 ± 21.51 mg/dL | Blood sugar level (KK-Ay/Ta mice [2]; Day 0 (day preceding the administration, baseline), listed as the compound of the present invention): 465.7 ± 21.51 mg/dL | Blood sugar level (KK-Ay/Ta mice [2]; Day 3, 300 mg/Kg/day p.o. (100 a.m. + 200 p.m.), 300 mg/kg/day): 380.8 ± 52.42 mg/dL | Blood sugar level (KK-Ay/Ta mice [2]; Day 3, 300 mg/Kg/day p.o. (100 a.m. + 200 p.m.), listed as the compound of the present invention, 300 mg/kg/day): 380.8 ± 52.42 mg/dL | Blood sugar level (KK-Ay/Ta mice [2]; Day 7, 300 mg/Kg/day p.o. (100 a.m. + 200 p.m.), 300 mg/kg/day): 319.8 ± 27.49 mg/dL | Blood sugar level (KK-Ay/Ta mice [2]; Day 7, 300 mg/Kg/day p.o. (100 a.m. + 200 p.m.), listed as the compound of the present invention, 300 mg/kg/day): 319.8 ± 27.49 mg/dL | Blood sugar level (KK-Ay/Ta mice [2]; Day 10, 300 mg/Kg/day p.o. (100 a.m. + 200 p.m.), 300 mg/kg/day): 334.3 ± 33.75 mg/dL | Blood sugar level (KK-Ay/Ta mice [2]; Day 10, 300 mg/Kg/day p.o. (100 a.m. + 200 p.m.), listed as the compound of the present invention, 300 mg/kg/day): 334.3 ± 33.75 mg/dL | Blood sugar level (KK-Ay/Ta mice [2]; Day 14, 300 mg/Kg/day p.o. (100 a.m. + 200 p.m.), 300 mg/kg/day): 280.2 ± 37.31 mg/dL | Blood sugar level (KK-Ay/Ta mice [2]; Day 14, 300 mg/Kg/day p.o. (100 a.m. + 200 p.m.), listed as the compound of the present invention, 300 mg/kg/day): 280.2 ± 37.31 mg/dL
